Measurements taken from US9718823B2, “2, 6-Di-nitrogen-containing substituted purine derivative, and preparation method, pharmaceutical composition and use thereof” (Zhejiang Medicine Co., Ltd. Xinchang Pharmaceutical Factory, priority 2013, dated 2017).
“And” between values parts separate entries of the source, which are not always exact repeats. Equal entries are not always repeated. Where two headings read alike, the source gives them in different places.

Legend:
PI3K α = target: T1, PI3K α (Homo sapiens, UniProt P42336); test: Inhibitory activity to PI3K α, PI 3-Kinase (human) HTRF Assay kit; format: biochemical; details: read-out: % Inhibition Rate to PI3K α
T1 construct: purchased Millipore 14-602
Excerpt: Study on the inhibitory activity of the compounds of present invention to PI 3κα, PI3κδ and PI3κγ. Two or three concentrations of the compounds are selected to preliminary screening to calculate respectively the activity inhibition rate of the compounds of corresponding concentrations to enzyme, then the compounds with better activity are selected by preliminary screening for IC50 test.
PI 3-Kinase (human) HTRF™ Assay kit (Cat.33-017, Millipore)
PI 3k α (Cat.14-602, Millipore)
4× Reaction Buffer (Cat.33-002, Millipore) is diluted with ddH2O to 1.33×, and 1M DTT is added to make the final concentration as 6.67 mM. For example, 10 μL DTT is added into 500 μL 4× Reaction Buffer, and water is added to 1.5 mL.
The Test compounds are dissolved with DMSO to 1 mM as storage liquid. 2 μL of each of storage liquid is added into 48 μL ddH2O, to obtain the 40 μM compounds solution containing 4% DMSO. After mixing, 3 μL of each of the solution is added into 27 μL 4% DMSO (in ddH2O) to obtain the 4 μM compounds solution. 5 μL of each dilute solution is added into 384-well plates, then the final concentration of the compounds in the 20 μL final kinase reaction system is 10 μM and 1 μM respectively contained 1% DMSO. The dilution methods of compounds are similar to the preliminary screening in IC50 test.
2×PIP2 working fluid is prepared with 1.33× reaction buffer to the final concentration of 20 μM.
The screening concentration of PI 3k α kinase: 8 ng/well,
Kinase is diluted with 2×PIP2 operating fluid, the concentration of kinase operating fluid is 2 times of screening concentration.
10 mM ATP is diluted with 1.33× reaction buffer to 400 μM. The concentration of ATP is 100 μM in 20 μL kinase reaction system.
Stop A and Stop B are mixed according to the proportion of 3:1, and are placed for 2 hours at room temperature to obtain the stop solution available.
DM C, DM A and DM B are mixed according to the proportion of 18:1:1, and are placed for 2 hours at room temperature to obtain the detection solution available.

PI3Kδ = target: T2, PI3Kδ (Homo sapiens, UniProt O00329); test: Inhibitory activity to PI3K δ, PI 3-Kinase (human) HTRF Assay kit; format: biochemical; details: for inhibition at 1 µM / inhibition at 10 µM: read-out: Inhibition rate % to PI3Kδ
T2 construct: purchased Millipore 14-604
Procedure, shortened: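 Inhibition of human PI3Kδ was assessed with the Millipore PI 3-Kinase (human) HTRF Assay kit. PI3Kδ was screened at 2 ng/well, diluted in 2×PIP2 operating fluid. Reactions were 20 μL and contained 100 μM ATP. Stop solution was Stop A and Stop B mixed 3:1. Detection solution was DM C, DM A and DM B mixed 18:1:1. Compounds were prepared from DMSO stocks, and percent inhibition was reported.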

[1] = system: PC-3 human prostate cancer cell strain; test: Antitumor cell proliferation in vitro, CCK-8 detection kit, PC-3; format: cell-based; details: Homo sapiens, PC-3, 72 h, PC-3 cells, 1st and 2nd test where printed
Protocol: (§1) The half inhibitory concentration IC50 of proliferation of three kinds of tumor cell strain (U87MG, PC-3, BT474) for 12 candidate compounds of the present invention is detected by CCK-8 detection kits.
PC-3 human prostate cancer cell strain (cell bank of Chinese Academy of Sciences)
(§2) The studied compounds are dissolved by DMSO to make the final concentration 10 mM.
(§3) • a) Collecting the cells in logarithmic phase, counting, and resuspending the cells with complete medium. • b) Adjusting the concentration of cells to a suitable concentration, inoculating in 96 well plates, each well is inoculated to 100 μl cell suspension.
(§4) c) incubating cells for 24 hours in a 5% CO2 incubator at temperature of 37° C., under the condition of 100% relative humidity.
(§5) a) The cells in logarithmic phase is collected, counted, resuspended with complete medium. The concentration of cells is adjusted to a suitable concentration (determined in accordance with the optimizable test results of cell density), and the cells is inoculated in 96 well plates, wherein each well is inoculated 100 μl cell suspension, Cells are incubated for 24 hours in 5% CO2 incubator at temperature of 37° C. under the condition of 100% relative humidity.
(§6) b) The test compounds are diluted to 500 μM with culture medium, then diluted in series eight times. […] as 25 μl/well. The final concentrations of the compounds are diluted from 100 μM to 0 μM, with 4 times dilution, and there are a total of 10 concentration points.
(§7) c) Cells are incubated for 72 hours in 5% CO2 incubator at temperature of 37° C. under the condition of 100% relative humidity.
(§8) d) The culture medium is aspirated and discarded, and complete medium containing 10% CCK-8 is incubated in a incubator at 37° C. for 2˜4 hours.
(§9) e) After shocking gently, the absorbance of the culture medium is measured at 450 nm wavelength on SpectraMax M5 Microplate Reader, with the absorbance at 650 nm as reference, to calculate the inhibition rate.

[2] = system: U87MG human glioblastoma Multiforme cell strain; test: Antitumor cell proliferation in vitro, CCK-8 detection kit, U87MG; format: cell-based; details: U-87 MG, 72 h, U-87MG cells, 1st and 2nd test where printed
Protocol: as §1
U87MG human glioblastoma Multiforme cell strain (cell bank of Chinese Academy of Sciences)
as §2, §3, §4, §5, §6, §7, §8, §9

[3] = system: BT474 human breast cancer cell strain; test: Antitumor cell proliferation in vitro, CCK-8 detection kit, BT474; format: cell-based; details: BT-474 cells, 1st and 2nd test where printed
Protocol: as §1
BT474 human breast cancer cell strain (cell bank of Chinese Academy of Sciences) Reagents and materials:
as §2, §3, §4, §5, §6, §7, §8, §9

[4] = system: PC-3 cell Akt (Ser473) phosphorylation; test: Inhibition of phosphorylation level of PC-3 cell Akt (Ser473), Cisbio HTRF phospho Akt (Ser473) cell-based assay; design: species or system human; details: hEGF 100 ng/ml stimulation, 1st and 2nd test where printed
Protocol: The inhibitory activity of the compounds of present invention to the phosphorylation level of PC-3 cell Akt (Ser473) is studied by using Cisbio HTRF phospho Akt (Ser473) cell-based assay test kit.
Cell strain: PC-3 prostate cancer cells line (cell bank of Chinese Academy of Sciences) is cultured by using culture medium (F12K+10% FBS).
hEGF is prepared as stock solution of 100 ug/ml with 10 mM acetic acid, and the stock solution is diluted to 200 ng/ml with serum-free medium, added 50 ul to each well to be stimulated.
b) Preparation of Complete Lysate • 4×Lysis Buffer is diluted 4 times with ddH2O to prepare 1×Lysis Buffer. • 100×Blocking Reagent is diluted 100 times with 1×Lysis Buffer.
c) Preparation of Detection Liquid • 20×Anti-Phospho-Akt is diluted 20 times with Detection Buffer. • 20×Anti-Akt is diluted 20 times with Detection Buffer.
The compounds are diluted with DMSO, and the working concentration of compounds is 100 times of detection concentration.
Cells in logarithmic growth phase are collected, counted, and resuspended with complete culture medium;
The cell concentration is adjusted to appropriate concentration, and cell suspension is inoculated into 96 well plates at 50 μl per well;
Cells are incubated for more than 4 h in the 5% CO2 incubator at temperature of 37° C., relative humidity of 100%;
Cell plate is removed from the incubator. The cell suspension is aspirated gently, and 50 ul serum-free F12K medium is quickly added, then the cell plate is placed into the incubator to culture overnight.
The compounds are diluted in a linear gradient with DMSO.
0.5 ul compounds is added into the test well, mixed on oscillators, and incubated at room temperature for 2 hours.
Proportioned hEGF solution is added to test well at 50 μl per well, and the final concentration is 100 ng/ml. serum-free medium is added into The negative control well at 50 μl per well.
The solution is mixed on oscillator and incubated at room temperature for 2 hours.
The liquid in 96 well plates is aspirated by multichannel pipette or the supernatant is discarded gently. The proportioned complete lysate is added quickly at 50 μl per well.
The solution is mixed on oscillator and lysed at room temperature for 30 min.
16 μl cell lysate is transferred from the 96 well plates to white low volume 384 well plates, and the proportioned two pairs of detection antibody are added. The solution is mixed on oscillator, and incubated at room temperature for 4 hours to detect the readings.

PDGFR β enzyme = target: T3, PDGFR β enzyme (Homo sapiens, UniProt P09619); test: Inhibitory activity to PDGFR β enzyme, HTRF kinEASE TK kit; format: biochemical; details: for inhibition at 1 µM / inhibition at 10 µM: read-out: Inhibition rate % (PDGFR β)
T3 construct: purchased Invitrogen P3082
Procedure, shortened: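 Recombinant human PDGFRβ phosphorylating TK-substrate in kinase buffer containing MgCl2, MnCl2, DTT and SEB, with ATP. Phosphorylation detected by HTRF using TK-Ab-Cryptate and Sa-XL665.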

PI3 K γ = target: T4, PI3 K γ (Homo sapiens, UniProt P48736); test: Inhibitory activity to PI3K γ, PI 3-Kinase (human) HTRF Assay kit; format: biochemical; details: for inhibition at 1 µM / inhibition at 10 µM: read-out: Inhibition rate % to PI3 K γ
T4 construct: purchased Biology, Medicilon
Procedure, shortened: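 HTRF kinase assay with PI3Kγ at 80 ng/well, 10 μM PIP2 and 100 μM ATP (both final) in DTT-containing reaction buffer, 1% DMSO. Preliminary screen at 10 μM and 1 μM compound, followed by IC50 determination for selected compounds.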

T4 sequence (P48736 whole entry): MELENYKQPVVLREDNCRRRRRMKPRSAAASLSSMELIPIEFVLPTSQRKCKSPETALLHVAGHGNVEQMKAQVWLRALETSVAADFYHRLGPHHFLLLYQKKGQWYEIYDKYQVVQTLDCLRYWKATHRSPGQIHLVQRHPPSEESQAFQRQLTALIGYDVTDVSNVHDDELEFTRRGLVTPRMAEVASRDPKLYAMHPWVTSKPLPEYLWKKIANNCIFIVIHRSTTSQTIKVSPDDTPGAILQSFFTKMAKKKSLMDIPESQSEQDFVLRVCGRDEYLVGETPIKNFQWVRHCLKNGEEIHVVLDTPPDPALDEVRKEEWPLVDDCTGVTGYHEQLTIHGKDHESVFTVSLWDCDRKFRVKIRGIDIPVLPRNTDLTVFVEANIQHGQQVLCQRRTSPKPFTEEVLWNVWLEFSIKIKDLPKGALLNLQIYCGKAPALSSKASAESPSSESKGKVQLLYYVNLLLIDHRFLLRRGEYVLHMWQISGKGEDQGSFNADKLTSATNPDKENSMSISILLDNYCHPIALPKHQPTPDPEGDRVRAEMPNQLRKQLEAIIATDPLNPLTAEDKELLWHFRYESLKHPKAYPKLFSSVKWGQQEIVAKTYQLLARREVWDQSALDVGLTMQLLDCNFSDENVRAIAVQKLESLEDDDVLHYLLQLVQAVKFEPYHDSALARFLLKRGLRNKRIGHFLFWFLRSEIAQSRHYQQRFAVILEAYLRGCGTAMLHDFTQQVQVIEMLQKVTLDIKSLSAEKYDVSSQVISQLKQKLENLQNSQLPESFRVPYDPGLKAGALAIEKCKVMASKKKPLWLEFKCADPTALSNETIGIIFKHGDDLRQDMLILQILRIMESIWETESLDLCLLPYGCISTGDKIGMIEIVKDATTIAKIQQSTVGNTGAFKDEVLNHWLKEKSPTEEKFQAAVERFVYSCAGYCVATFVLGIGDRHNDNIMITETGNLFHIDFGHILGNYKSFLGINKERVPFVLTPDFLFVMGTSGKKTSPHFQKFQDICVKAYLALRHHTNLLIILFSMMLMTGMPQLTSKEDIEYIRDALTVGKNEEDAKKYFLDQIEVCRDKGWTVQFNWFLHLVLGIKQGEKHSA
T1 sequence (P42336 whole entry): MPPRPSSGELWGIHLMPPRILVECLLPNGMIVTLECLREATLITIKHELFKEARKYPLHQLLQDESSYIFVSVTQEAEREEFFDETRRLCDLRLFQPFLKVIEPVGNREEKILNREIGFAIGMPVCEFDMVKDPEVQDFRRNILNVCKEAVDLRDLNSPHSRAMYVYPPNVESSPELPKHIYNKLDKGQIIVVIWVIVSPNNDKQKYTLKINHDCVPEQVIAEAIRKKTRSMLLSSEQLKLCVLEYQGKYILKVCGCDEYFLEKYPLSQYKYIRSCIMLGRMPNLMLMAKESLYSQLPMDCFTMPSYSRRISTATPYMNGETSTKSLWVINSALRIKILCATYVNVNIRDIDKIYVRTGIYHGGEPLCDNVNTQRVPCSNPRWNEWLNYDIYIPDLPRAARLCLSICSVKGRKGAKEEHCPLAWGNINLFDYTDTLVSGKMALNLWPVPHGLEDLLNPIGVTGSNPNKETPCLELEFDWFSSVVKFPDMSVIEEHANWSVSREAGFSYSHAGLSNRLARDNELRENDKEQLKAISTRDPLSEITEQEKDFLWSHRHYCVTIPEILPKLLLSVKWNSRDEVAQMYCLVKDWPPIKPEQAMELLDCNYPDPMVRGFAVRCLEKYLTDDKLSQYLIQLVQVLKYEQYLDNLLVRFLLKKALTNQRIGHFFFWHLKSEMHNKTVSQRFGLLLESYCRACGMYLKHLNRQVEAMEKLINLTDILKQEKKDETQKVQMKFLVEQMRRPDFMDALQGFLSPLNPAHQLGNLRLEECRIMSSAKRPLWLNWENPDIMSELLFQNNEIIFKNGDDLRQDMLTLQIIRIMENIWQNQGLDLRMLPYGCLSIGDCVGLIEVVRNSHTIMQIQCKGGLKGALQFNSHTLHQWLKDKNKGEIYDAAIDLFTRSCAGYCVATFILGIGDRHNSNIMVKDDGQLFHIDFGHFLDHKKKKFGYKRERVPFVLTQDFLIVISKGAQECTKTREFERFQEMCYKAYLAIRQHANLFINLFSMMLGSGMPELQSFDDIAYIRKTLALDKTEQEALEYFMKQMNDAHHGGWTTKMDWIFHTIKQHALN
T1 sequence (P27986 whole entry partner): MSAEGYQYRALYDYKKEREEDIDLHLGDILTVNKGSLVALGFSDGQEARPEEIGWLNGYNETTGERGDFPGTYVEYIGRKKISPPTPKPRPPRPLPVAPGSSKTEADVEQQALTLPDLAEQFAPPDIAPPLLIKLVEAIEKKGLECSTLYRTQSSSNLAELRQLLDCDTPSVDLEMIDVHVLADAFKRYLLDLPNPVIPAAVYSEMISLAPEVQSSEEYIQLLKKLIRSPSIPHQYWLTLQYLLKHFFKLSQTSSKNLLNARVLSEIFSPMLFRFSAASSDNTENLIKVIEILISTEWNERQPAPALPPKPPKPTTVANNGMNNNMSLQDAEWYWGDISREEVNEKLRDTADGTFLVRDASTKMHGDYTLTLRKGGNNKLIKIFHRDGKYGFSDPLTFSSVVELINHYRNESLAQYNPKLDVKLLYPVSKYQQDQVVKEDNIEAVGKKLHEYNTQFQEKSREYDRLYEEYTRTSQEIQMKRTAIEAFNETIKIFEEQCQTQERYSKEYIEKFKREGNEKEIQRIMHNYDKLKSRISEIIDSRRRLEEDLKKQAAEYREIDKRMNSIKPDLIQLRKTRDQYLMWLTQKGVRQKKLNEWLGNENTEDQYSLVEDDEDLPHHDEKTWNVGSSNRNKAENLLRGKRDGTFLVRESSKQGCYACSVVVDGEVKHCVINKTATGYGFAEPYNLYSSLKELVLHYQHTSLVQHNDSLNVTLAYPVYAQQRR
T3 sequence (P09619 33-1106): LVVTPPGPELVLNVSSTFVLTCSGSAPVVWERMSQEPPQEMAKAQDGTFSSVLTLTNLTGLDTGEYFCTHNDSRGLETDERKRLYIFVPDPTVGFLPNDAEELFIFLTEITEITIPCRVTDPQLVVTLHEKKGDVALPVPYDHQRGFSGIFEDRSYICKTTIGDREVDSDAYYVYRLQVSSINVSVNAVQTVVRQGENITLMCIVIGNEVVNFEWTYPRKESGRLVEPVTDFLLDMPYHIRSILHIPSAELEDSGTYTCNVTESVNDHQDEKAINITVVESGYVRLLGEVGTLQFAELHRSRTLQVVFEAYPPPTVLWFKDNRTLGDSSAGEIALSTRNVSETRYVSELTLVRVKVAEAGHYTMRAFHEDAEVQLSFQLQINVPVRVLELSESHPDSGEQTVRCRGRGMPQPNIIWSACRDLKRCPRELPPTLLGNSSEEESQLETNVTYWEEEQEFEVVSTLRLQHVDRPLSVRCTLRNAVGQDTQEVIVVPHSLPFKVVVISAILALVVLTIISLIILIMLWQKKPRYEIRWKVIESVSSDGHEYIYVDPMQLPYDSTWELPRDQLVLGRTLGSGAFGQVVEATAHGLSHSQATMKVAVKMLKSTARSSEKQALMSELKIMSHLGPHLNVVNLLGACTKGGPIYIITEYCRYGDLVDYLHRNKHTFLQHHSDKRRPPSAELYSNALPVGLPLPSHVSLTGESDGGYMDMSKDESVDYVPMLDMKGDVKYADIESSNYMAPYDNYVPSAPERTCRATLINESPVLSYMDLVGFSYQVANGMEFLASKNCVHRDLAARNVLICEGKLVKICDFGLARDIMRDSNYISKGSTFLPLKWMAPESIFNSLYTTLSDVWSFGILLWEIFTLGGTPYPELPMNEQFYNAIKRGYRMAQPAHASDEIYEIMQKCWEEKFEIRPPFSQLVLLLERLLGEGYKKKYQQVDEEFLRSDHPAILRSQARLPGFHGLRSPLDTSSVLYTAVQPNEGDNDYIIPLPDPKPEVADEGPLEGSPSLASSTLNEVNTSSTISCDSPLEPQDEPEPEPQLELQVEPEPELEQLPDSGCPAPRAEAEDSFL
T2 sequence (O00329 whole entry): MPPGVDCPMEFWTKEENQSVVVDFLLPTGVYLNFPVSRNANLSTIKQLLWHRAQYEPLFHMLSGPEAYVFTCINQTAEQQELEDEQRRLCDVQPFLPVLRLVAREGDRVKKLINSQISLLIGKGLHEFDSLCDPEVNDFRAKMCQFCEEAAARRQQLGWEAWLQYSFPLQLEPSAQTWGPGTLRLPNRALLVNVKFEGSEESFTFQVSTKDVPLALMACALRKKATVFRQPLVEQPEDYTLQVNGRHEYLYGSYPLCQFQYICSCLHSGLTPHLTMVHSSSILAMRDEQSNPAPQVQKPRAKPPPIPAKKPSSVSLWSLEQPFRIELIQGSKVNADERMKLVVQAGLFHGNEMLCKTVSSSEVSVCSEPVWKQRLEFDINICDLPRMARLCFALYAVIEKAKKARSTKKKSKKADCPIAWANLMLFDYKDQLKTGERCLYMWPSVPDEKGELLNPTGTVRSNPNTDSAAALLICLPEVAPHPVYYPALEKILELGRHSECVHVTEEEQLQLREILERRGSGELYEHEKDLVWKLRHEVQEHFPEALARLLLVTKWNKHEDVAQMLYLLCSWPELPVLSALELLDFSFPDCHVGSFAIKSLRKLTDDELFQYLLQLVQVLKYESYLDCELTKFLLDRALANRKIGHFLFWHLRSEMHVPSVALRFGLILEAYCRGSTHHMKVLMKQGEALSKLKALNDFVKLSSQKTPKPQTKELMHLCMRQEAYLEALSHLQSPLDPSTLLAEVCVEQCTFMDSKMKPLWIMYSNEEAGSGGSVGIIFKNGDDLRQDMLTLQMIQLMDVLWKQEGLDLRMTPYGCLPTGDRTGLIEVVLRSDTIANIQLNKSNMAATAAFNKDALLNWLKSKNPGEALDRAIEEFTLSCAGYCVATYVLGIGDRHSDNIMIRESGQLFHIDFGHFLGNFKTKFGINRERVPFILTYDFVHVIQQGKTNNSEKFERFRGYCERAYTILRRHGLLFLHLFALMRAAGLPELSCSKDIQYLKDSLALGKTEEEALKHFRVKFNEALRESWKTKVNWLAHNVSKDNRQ
T2 sequence (P27986 whole entry partner): as the sequence (P27986 whole entry partner) above

Structure (SMILES): CC(C)Oc1nc(Nc2ccc3ncccc3c2)nc2[nH]cnc12 [MED1007-104, N-(6-isopropoxy-9H-purine-2-yl) quinoline-6-amine]
- inhibition at 1 µM (PI3K α): 60.3%
- inhibition at 10 µM (PI3K α): 106%
- Inhibition rate % to PI3Kδ (PI3Kδ; 1 μM (Table 7), 1 µM): 57.14%
- Inhibition rate % to PI3Kδ (PI3Kδ; 10 μM (Table 7), 10 µM): 85.86%
- IC50 [1]: 1700 nM
- IC50 [2]: 18100 nM
- IC50 ([3]; Homo sapiens, BT-474, 72 h): 1360 nM

Structure (SMILES): CC(C)Oc1nc(Nc2ccc3nccc(-c4ccccc4)c3c2)nc2[nH]cnc12 [MED1007-51, N-(6-isopropoxy-9H-purine-2-yl)-4-(phenyl-1-yl) quinoline-6-amine]
- inhibition at 1 µM (PI3Kδ; 1 μM (Table 7)): 39.6%
- inhibition at 10 µM (PI3Kδ; 10 μM (Table 7)): 75.5%
- IC50 ([4]; PC-3 cells): 1.14 nM and 0.683 nM
- inhibition at 1 µM (PDGFR β enzyme): 11.9%
- inhibition at 10 µM (PDGFR β enzyme): 33.6%
- IC50 ([3]; 72 hours): 81.4 nM and 114 nM
- inhibition at 1 µM (PI3 K γ; 1 μM): 1.16%
- inhibition at 10 µM (PI3 K γ; 10 μM): 56.2%

Structure (SMILES): c1ccc(-c2ccnc3ccc(Nc4nc(N5CCCC5)c5nc[nH]c5n4)cc23)cc1 [MED1007-103, 4-phenyl-N-(6-(pyrrolidine-1-yl)-9H-purine-2-yl)quinoline-6-amine]
- inhibition at 1 µM (PI3K α): 55.3%
- inhibition at 10 µM (PI3K α): 82.2%
- inhibition at 1 µM (PI3Kδ; 1 μM (Table 7)): 68%
- inhibition at 10 µM (PI3Kδ; 10 μM (Table 7)): 87.5%
- IC50 ([4]; Homo sapiens, PC-3, PC-3 cells): 276 nM

Structure (SMILES): c1ccc(-c2ccnc3ccc(Nc4nc(NC5CC5)c5nc[nH]c5n4)cc23)cc1 [MED1007-31, N6-cyclopropyl-N2-(4-phenylquinoline-6-yl)-9H-purine-2,6 diamine]
- Inhibition rate % to PI3Kδ (PI3Kδ; 1 μM (Table 7), 1 µM): 40.16%
- Inhibition rate % to PI3Kδ (PI3Kδ; 10 μM (Table 7), 10 µM): 97.80%
- IC50 ([4]; Homo sapiens, PC-3, PC-3 cells): 112 nM
- Inhibition rate % (PDGFR β) (PDGFR β enzyme; 1 μM): 13.84%
- Inhibition rate % (PDGFR β) (PDGFR β enzyme; 10 μM): 26.16%
- Inhibition rate % to PI3 K γ (PI3 K γ; 1 μM): 11.33%
- Inhibition rate % to PI3 K γ (PI3 K γ; 10 μM): 52.59%

Structure (SMILES): COc1ccc(-c2ccnc3ccc(Nc4nc(NC5CC5)c5nc[nH]c5n4)cc23)cc1 [MED1007-63, N6-cyclopropyl-N2-(4-(4-methoxyphenyl)quinoline-6-yl)-9H-purine-2,6-diamine]
- inhibition at 1 µM (PI3Kδ; 1 μM (Table 7)): 37.5%
- inhibition at 10 µM (PI3Kδ; 10 μM (Table 7)): 122%
- IC50 ([4]; Homo sapiens, PC-3, PC-3 cells): 62.2 nM
- inhibition at 1 µM (PDGFR β enzyme; 1 μM): -0.31%
- inhibition at 10 µM (PDGFR β enzyme; 10 μM): 28%
- inhibition at 1 µM (PI3 K γ; 1 μM): 0.96%
- inhibition at 10 µM (PI3 K γ; 10 μM): 14.7%
